Data taken from paper PMC11027154 (Journal of the American Chemical Society, 2024).
Bridge positions count the residues as written; N and C are the ends. Square brackets hold non-standard residues; d marks the D form. Peptide text beside a SMILES is read from it. * marks the point of attachment. X1 = C[C@@H]1NC(=O)[C@H](CC(=O)O)NC(=O)[C@@H](N)CSCc2cc3cc(c2)CSC[C@@H](C(=O)*)NC(=O)[C@H](CSC3)NC(=O)[C@H](CO)NC1=O; FITC = O=C1OC2(c3ccc(O)cc3Oc3cc(O)ccc32)c2ccc(NC(=S)*)cc21; S5 = C=CCCC[C@](C)(N)C(=O)O; βAla = NCCC(=O)O

How the values were obtained:
circular dichroism = details: PBS, pH 7.4, 25 °C
[1] = In vitro peptide stability in human serum; type: in vitro ADME; details: 25% human serum, 37 °C; for degradation behaviour in serum: up to 48 h, LC-MS
Method: The test compounds were separately incubated with 25% human serum at 37 °C; residual starting materials were monitored as a function of time, and degradation products were characterized using LC-MS (Figure 5c). […] Besides terminal degradation, we also observed ring-opening products by hydrolysis of amide bonds within the hydrocarbon macrocycles in two stapled peptides (Figures S28, S29).

cyclin A1 with a His tag = biological target: T1, cyclin A1 with a His tag (Homo sapiens, UniProt P78396); assay: Direct fluorescence polarization (FP) binding to cyclin A1; details: Figure 5b; FITC-labeled peptide, PBS, 3 h; read-out: FP assay for cyclin A: Kd^app
T1 construct: His; purchased Sino Biological
T1 sequence (P78396 whole entry): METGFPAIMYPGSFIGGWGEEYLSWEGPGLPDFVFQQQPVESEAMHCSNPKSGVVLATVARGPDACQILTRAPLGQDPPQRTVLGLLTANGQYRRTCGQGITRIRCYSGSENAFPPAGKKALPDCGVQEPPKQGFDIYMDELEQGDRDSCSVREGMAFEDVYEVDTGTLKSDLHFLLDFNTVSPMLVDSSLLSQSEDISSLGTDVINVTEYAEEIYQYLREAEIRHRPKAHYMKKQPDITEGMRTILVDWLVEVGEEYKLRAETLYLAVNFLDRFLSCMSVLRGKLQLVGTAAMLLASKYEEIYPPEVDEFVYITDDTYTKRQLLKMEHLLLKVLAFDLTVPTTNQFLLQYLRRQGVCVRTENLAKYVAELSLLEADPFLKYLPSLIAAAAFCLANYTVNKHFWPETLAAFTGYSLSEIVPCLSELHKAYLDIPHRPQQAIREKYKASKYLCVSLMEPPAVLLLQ

[2] = 25 % human serum diluted in RPMI medium; details: 37 °C, up to 48 hours (dual 0 – 72 hours in Figure S24)
[3] = residual starting material vs time, LC-MS/HPLC, 95% confidence interval in parentheses

Which helicity (circular dichroism; 5-30 uM) does the source give for `CC[C@H](C)[C@H](NC(=O)[C@@H]1CSCc2cc3cc(c2)CSC[C@H](N)C(=O)N[C@@H](CC(=O)O)C(=O)N[C@@H](C)C(=O)N[C@@H](CO)C(=O)N[C@@H](CSC3)C(=O)N1)C(=O)N[C@@H](CCCNC(=N)N)C(=O)N[C@@H](CCC(=O)O)C(=O)N[C@H](C(=O)N[C@@H](CO)C(=O)N[C@@H](CC(C)C)C(=O)N[C@@H](CC(C)C)C(=O)N[C@@H](CCCCN)C(=O)N[C@@H](CCC(=O)O)C(=O)N[C@@H](Cc1ccc(O)cc1)C(N)=O)[C@@H](C)CC` [BAMM] (X1-IREISLLKEY-NH2) here?
Its helicity is -5590 MRE222.

What about the “degradation behaviour in serum” value [1] of the same compound?
The value was “hydrolyzed more slowly and formed stable byproducts”.

What about the half-life [1, 3] of the same compound?
The half-life was 2.1 h.

Which helicity (circular dichroism; 5-30 uM) does the source give for `CC[C@H](C)[C@H](NC(=O)[C@H](C)NC(=O)[C@@H](NC(=O)[C@H](CO)NC(=O)[C@H](C)NC(C)=O)[C@@H](C)O)C(=O)N[C@@H](CCCNC(=N)N)C(=O)N[C@@H](CCC(=O)O)C(=O)N[C@H](C(=O)N[C@@H](CO)C(=O)N[C@@H](CC(C)C)C(=O)N[C@@H](CC(C)C)C(=O)N[C@H]1CSCc2cc3cc(c2)CSC[C@H](NC(=O)[C@H](Cc2ccc(O)cc2)NC(=O)[C@H](CCC(=O)O)NC1=O)C(=O)NCC(=O)N[C@H](C(N)=O)CSC3)[C@@H](C)CC` [BSM] here?
Its helicity is -5000 MRE222.

And the “degradation behaviour in serum” value [1]?
Its value is “hydrolyzed more slowly and formed stable byproducts”.

What about the half-life [1, 3] of the same compound?
Its half-life is 2.6 h.

For `CC[C@H](C)[C@H](NC(=O)[C@@H]1CSCc2cc3cc(c2)CSC[C@H](N)C(=O)N[C@@H](CC(=O)O)C(=O)N[C@@H](C)C(=O)N[C@@H](CO)C(=O)N[C@@H](CSC3)C(=O)N1)C(=O)N[C@@H](CCCNC(=N)N)C(=O)N[C@@H](CCC(=O)O)C(=O)N[C@H](C(=O)N[C@@H](CO)C(=O)N[C@@H](CC(C)C)C(=O)N[C@@H](CC(C)C)C(=O)N[C@H]1CSCc2cc3cc(c2)CSC[C@H](NC(=O)[C@H](Cc2ccc(O)cc2)NC(=O)[C@H](CCC(=O)O)NC1=O)C(=O)NCC(=O)N[C@H](C(N)=O)CSC3)[C@@H](C)CC` [dual], which helicity (circular dichroism; 13 uM) is on record?
The helicity was -11300 MRE222.

What about the “t1/2 relative to staple-2” value [1] of the same compound?
Its value is > 5.6 ×.

What about the “t1/2 relative to the linear control” value [1] of the same compound?
Its value is > 49 ×.

And the “degradation behaviour in serum” value [1]?
The value was “oxidation (sulfoxides, M^++16) but not proteolysis was observed”.

And the “half-life (h)” value [1, 3]?
The value was 39.5 (>19.3) h.

With `CC[C@H](C)[C@@H]1NC(=O)[C@H](C)NC(=O)[C@@](C)(NC(=O)[C@H](CO)NC(=O)[C@H](C)NC(=O)CCNC(=O)CCNC(=O)CCNC(=S)Nc2ccc3c(c2)C(=O)OC32c3ccc(O)cc3Oc3cc(O)ccc32)CCCC=CCCC[C@@](C)(C(=O)N[C@H](C(=O)N[C@@H](CO)C(=O)N[C@@H](CC(C)C)C(=O)N[C@@H](CC(C)C)C(=O)N[C@@H](CCCCN)C(=O)N[C@@H](CCC(=O)O)C(=O)N[C@@H](Cc2ccc(O)cc2)C(N)=O)[C@@H](C)CC)NC(=O)[C@H](CCCNC(=N)N)NC1=O` [staple-1-f] ({FITC-βAla-βAla-βAla}-AS[S5]AIR[S5]ISLLKEY-NH2; staple 3-7) as the compound, how does the Kd (cyclin A1 with a His tag) read?
The Kd was 1470 ± 210 nM.

What does the source list for `CC[C@H](C)[C@@H]1NC(=O)[C@H](C)NC(=O)[C@@](C)(NC(=O)[C@H](CO)NC(=O)[C@H](C)NC(C)=O)CCCC=CCCC[C@@](C)(C(=O)N[C@H](C(=O)N[C@@H](CO)C(=O)N[C@@H](CC(C)C)C(=O)N[C@@H](CC(C)C)C(=O)N[C@@H](CCCCN)C(=O)N[C@@H](CCC(=O)O)C(=O)N[C@@H](Cc2ccc(O)cc2)C(N)=O)[C@@H](C)CC)NC(=O)[C@H](CCCNC(=N)N)NC1=O` [staple-1] (Ac-AS[S5]AIR[S5]ISLLKEY-NH2; staple 3-7)?
helicity (circular dichroism; 17 uM): -13200 MRE222; degradation behaviour in serum [1]: overall higher stabilities; half-life [1, 3]: 5.7 h

Which helicity (circular dichroism; 22 uM) does the source give for `CC[C@H](C)[C@H](NC(=O)[C@H](C)NC(=O)[C@@H](NC(=O)[C@H](CO)NC(=O)[C@H](C)NC(C)=O)[C@@H](C)O)C(=O)N[C@@H](CCCNC(=N)N)C(=O)N[C@@]1(C)CCCC=CCCC[C@@](C)(C(=O)N[C@@H](CCCCN)C(=O)N[C@@H](CCC(=O)O)C(=O)N[C@@H](Cc2ccc(O)cc2)C(N)=O)NC(=O)[C@H](CC(C)C)NC(=O)[C@H](CO)NC(=O)[C@H]([C@@H](C)CC)NC1=O` [staple-2] (Ac-ASTAIR[S5]ISL[S5]KEY-NH2; staple 7-11) here?
The helicity was -11100 MRE222.

And the “degradation behaviour in serum” value [1]?
The value was “overall higher stabilities”.

And the half-life [1, 3]?
Its half-life is 7 h.

With Ac-ASTAIREISLLCEYCGC as the compound, how does the fragment found [2] read?
Its fragment found is “CEYCGC (BSM bicycle), major”.

For Ac-ASTAIREISLLKEY-NH2, which helicity (circular dichroism; 5-30 uM) is on record?
Its helicity is -3310 MRE222.

Which fragment found [2] does the source give for CDASCCIREISLLCEYCGC here?
The fragment found was “sulfoxide dual; oxidized dual, 8h”.

For CDASCCIREISLLKEY, which fragment found [2] is on record?
Its fragment found is “CDASCCIRE (BAMM bicycle with three residues), major”.
